Data on two compounds can be found in BindingDB's records for doi:10.1021/jm100498u (Massachusetts General Hospital, 2010).

For this experiment, the target named is T1, Gamma-aminobutyric acid receptor subunit alpha-1/beta-2/gamma-2 (Homo sapiens, UniProt P14867+P18507+P47870).
T1 sequence (P14867 whole entry): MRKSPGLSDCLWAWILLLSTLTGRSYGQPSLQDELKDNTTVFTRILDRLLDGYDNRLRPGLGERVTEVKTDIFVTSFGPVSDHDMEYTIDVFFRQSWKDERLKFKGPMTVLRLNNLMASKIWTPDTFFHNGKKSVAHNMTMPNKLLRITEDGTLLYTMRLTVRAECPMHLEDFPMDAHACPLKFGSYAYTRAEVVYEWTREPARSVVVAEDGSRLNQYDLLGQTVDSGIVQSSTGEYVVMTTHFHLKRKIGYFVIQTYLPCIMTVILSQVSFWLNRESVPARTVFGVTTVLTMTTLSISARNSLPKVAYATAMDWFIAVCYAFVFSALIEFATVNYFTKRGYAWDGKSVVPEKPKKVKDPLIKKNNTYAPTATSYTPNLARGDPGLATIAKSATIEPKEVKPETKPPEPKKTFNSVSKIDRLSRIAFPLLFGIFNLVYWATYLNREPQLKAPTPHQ
T1 sequence (P18507 whole entry): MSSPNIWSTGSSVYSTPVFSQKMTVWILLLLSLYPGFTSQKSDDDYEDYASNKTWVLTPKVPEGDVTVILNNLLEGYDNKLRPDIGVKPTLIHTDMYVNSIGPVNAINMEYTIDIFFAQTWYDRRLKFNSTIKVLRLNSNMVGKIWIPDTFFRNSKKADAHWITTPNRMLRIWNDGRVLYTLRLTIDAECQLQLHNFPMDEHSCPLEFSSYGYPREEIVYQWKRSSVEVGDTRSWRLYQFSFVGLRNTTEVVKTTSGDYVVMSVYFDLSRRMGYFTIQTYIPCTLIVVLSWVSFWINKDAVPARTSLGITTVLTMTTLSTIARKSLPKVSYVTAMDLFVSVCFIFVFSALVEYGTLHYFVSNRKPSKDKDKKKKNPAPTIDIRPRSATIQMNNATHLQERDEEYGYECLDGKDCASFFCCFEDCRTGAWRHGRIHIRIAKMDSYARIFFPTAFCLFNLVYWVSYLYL
T1 sequence (P47870 whole entry): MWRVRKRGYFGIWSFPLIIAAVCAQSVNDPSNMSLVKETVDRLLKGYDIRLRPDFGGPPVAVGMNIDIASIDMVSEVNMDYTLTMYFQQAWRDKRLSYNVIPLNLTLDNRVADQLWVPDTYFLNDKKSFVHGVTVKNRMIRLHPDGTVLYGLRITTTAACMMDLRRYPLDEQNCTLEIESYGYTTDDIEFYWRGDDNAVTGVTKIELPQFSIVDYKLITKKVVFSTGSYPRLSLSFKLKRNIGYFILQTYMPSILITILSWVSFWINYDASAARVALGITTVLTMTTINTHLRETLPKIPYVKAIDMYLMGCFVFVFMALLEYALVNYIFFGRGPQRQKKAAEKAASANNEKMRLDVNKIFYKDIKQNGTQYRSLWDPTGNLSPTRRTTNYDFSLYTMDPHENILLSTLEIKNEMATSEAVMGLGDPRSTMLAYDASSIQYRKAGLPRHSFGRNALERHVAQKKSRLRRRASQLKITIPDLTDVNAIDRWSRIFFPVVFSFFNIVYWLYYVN
Briefly: Agonist activity at human GABA-A alpha-1-beta-2-gamma-2 receptor expressed in Xenopus laevis.

Take `CCOC(=O)c1cncn1[C@@H](C)c1ccc(C2(C(F)(F)F)N=N2)cc1`: the “EC50” value came to 6.4 µM.
The result for `CCOC(=O)c1cncn1[C@H](C)c1ccc(C2(C(F)(F)F)N=N2)cc1` reads 30 µM.

One may read the EC50 as the midpoint of the concentration-response curve.
